The assay relates to brain cell types. As to the kind of experiment: In vivo two-photon imaging of mouse cortex after topical cortical administration of fluorophores. Conditions: for Target: cell type taking up the compound in vivo (Table 1); for cellular labeling in cortex: topical cortical administration, 50 μM, wild type mice; for in vivo endothelial labeling/uptake: two-photon images of mouse cortex, route and concentration not stated. The protocol:
Briefly, animals are anaesthetized via intraperitoneal injections of ketamine/xylazine or via inhaled isoflurane. A region of the skull (3×3 mm) is gently removed with a high-speed drill and the underlying dura is removed. A small glass coverslip is placed over the skull to allow long term optical access for in vivo imaging. Labeling with fluorescent dyes is performed either via intravenous injections or topically application to the cortical surface for 20 min prior to glass cover placement. After recovery, in vivo images are acquired using a two-photon microscope (Bruker Technologies) equipped with a multimodal (fixed wavelength 1040 nm and tunable wavelength) InSight X3 two-photon laser (Spectra Physics) and 20× water immersion objective (Zeiss 1.0N.A.). The two-photon laser is appropriately tuned to excite particular fluorescent dyes and proteins as needed. In selected cases, following in vivo imaging, mice will be sacrificed and perfused for follow up immunohistochemistry and high-resolution confocal imaging (Leica SP8) to further confirm colocalization of dyes and cells expressing particular transporters.
One-month-old wild-type mice were anesthetized using a ketamine/xylazine solution at doses of 100 mg/kg and 10 mg/kg, respectively. The fur around the skull area was shaved, and buprenex (0.1 mg per kg) and carprofen (5 mg per kg) were administered subcutaneously. Mice were kept on a heating pad at 37° C., and anesthesia was periodically monitored. The skin was treated with povidone-iodine solution, followed by cleaning with ethanol, and eye ointment was applied. A small skin section was excised to expose the skull. Thinning of the skull was performed in a circular area, followed by delicately lifting of the remaining skull without harm to the underlying brain. Within the circular region, the dura was gently removed using fine forceps, and a 4 mm cover glass was softly pressed onto the brain surface and affixed to the skull. Fluorescent dyes were applied either through intravenous injections or topically to the cortical surface for 20 minutes before placing the glass cover. A customized head bar was attached either by adhesive (for acute imaging) or permanently implanted (using dental cement, for chronic imaging) onto the skull. Mice were imaged under a two-photon microscope (Prairie Technologies) with a mode-locked MaiTai tunable laser (Spectra Physics). Imaging was performed with a 20× water immersion objective (Zeiss, 1.0NA). Images were captured at depths up to 300 μm from the pial surface using excitation wavelengths ranging from 750 to 950 nm as previously described. Mice undergoing chronic imaging received a recovery period on a heating pad post-surgery, and buprenex (0.1 mg per kg) and carprofen (5 mg per kg) were administered for 3 days.
Batches of 10 compounds were applied through the craniotomy to the cortical surface before placing a cover glass window. No additional washings were performed, and the cover glass was placed, allowing up to 3 hours of imaging of the cortical surface with a two-photon microscope. Following imaging, the data were analyzed to identify potential patterns of cell-specific labeling. […] Positive batches underwent three additional rounds of imaging, with each batch being sequentially split, until a single compound displaying cell-type-specific labeling was identified. As these compounds were not initially purified, the labeling may have resulted from fluorescent byproducts of synthesis. Consequently, large-scale synthesis, purification and characterization (FIGS. 29A-29D) of the identified compounds were conducted. The purified compounds were subsequently retested using in vivo imaging to confirm cell type specificity.
It was reasoned that the best strategy to identify fluorophores with specific affinity to certain cell types and transport mechanisms would be by direct screening in the intact in vivo brain microenvironment. […]

Each structure is given as a SMILES string.

`O=S(=O)([O-])c1cc(S(=O)(=O)O)ccc1C1=c2cc3c4c(c2Oc2c1ccc(Cl)c2Cl)CCC[N+]=4CCC3` [Compound 23, 2-(12,13-dichloro-1,2,3,5,6,7-hexahydrochromeno[2,3-f]pyrido[3,2,1-ij]quinolin-4-ium-9-yl)-5-sulfobenzenesulfonate]: the Target result was “Endothelial”.
For the molecule `O=[N+]([O-])c1ccc2c(-c3ccc(S(=O)(=O)O)cc3S(=O)(=O)[O-])c3ccc(Br)cc3[o+]c2c1` [Compound 28, 2-(3-bromo-6-nitroxanthylium-9-yl)-5-sulfobenzenesulfonate], the Target entry was “Endothelial”.
In the case of `Cc1ccc2c(-c3ccc(S(=O)(=O)O)cc3S(=O)(=O)[O-])c3ccc(Br)cc3[o+]c2c1` [Compound 29], the Target result is reported as “Endothelial”.
For the molecule `O=S(=O)([O-])c1cc(S(=O)(=O)O)ccc1-c1c2ccc(Br)cc2[o+]c2cc(N3CCOCC3)ccc12` [Compound 30, 2-(3-bromo-6-morpholinoxanthylium-9-yl)-5-sulfobenzenesulfonate], the Target entry is “Endothelial”.
On the same count and under the same terms, in the case of `O=S(=O)([O-])c1cc(S(=O)(=O)O)ccc1-c1c2ccc(Br)cc2[o+]c2ccc(-n3ccnc3)cc12` [Compound 31, 2-(6-bromo-2-(1H-imidazol-1-yl)xanthylium-9-yl)-5-sulfobenzenesulfonate] it was “Endothelial”.
Turning to `O=S(=O)([O-])c1cc(S(=O)(=O)O)ccc1-c1c2ccc(Br)cc2[o+]c2ccc(S(=O)(=O)O)cc12` [Compound 32, 2-(6-bromo-2-sulfoxanthylium-9-yl)-5-sulfobenzenesulfonate], the Target entry is given as “Endothelial”.
Consider `O=S(=O)([O-])c1cc(S(=O)(=O)O)ccc1-c1c2ccc(Br)cc2[o+]c2ccc(-n3cncn3)cc12` [Compound 33, 2-(6-bromo-2-(1H-1,2,4-triazol-1-yl)xanthylium-9-yl)-5-sulfobenzenesulfonate], for which the Target entry is “Endothelial”.
On to `O=[N+]([O-])c1ccc2c(c1)Oc1c3c4c(cc1=C2c1ccc(S(=O)(=O)O)cc1S(=O)(=O)[O-])CCC[N+]=4CCC3` [Compound 35, 2-(12-nitro-1,2,3,5,6,7-hexahydrochromeno[2,3-f]pyrido[3,2,1-ij]quinolin-4-ium-9-yl)-5-sulfobenzenesulfonate], for which the Target entry was “Astrocyte”.
On the same count and under the same terms, in the case of `CN(C)c1ccc2c(c1)Oc1c3c4c(cc1=C2c1ccc(S(=O)(=O)O)cc1S(=O)(=O)[O-])CCC[N+]=4CCC3` [Compound 36, 2-(12-(dimethylamino)-1,2,3,5,6,7-hexahydrochromeno[2,3-f]pyrido[3,2,1-ij]quinolin-4-ium-9-yl)-5-sulfobenzenesulfonate] it was “Astrocyte”; in that of `O=C(O)CCc1ccc2c(c1)Oc1c3c4c(cc1=C2c1ccc(S(=O)(=O)O)cc1S(=O)(=O)[O-])CCC[N+]=4CCC3` [Compound 37, 2-(12-(2-carboxyethyl)-1,2,3,5,6,7-hexahydrochromeno[2,3-f]pyrido[3,2,1-ij]quinolin-4-ium-9-yl)-5-sulfobenzenesulfonate], “Astrocyte”.
Regarding `CN(C)c1ccc2c(-c3ccc(S(=O)(=O)O)cc3S(=O)(=O)[O-])c3cc(Br)ccc3[o+]c2c1` [Compound 38, 2-(2-bromo-6-(dimethylamino)xanthylium-9-yl)-5-sulfobenzenesulfonate], the Target result is reported as “Astrocyte”.
Turning to `CCN(CC)c1ccc2c(-c3ccc(S(=O)(=O)O)cc3S(=O)(=O)[O-])c3cc(Br)ccc3[o+]c2c1` [Compound 39, 2-(2-bromo-6-(diethylamino)xanthylium-9-yl)-5-sulfobenzenesulfonate], the Target result is reported as “Endothelial”.
For `Cc1ccc2c(-c3ccc(S(=O)(=O)O)cc3S(=O)(=O)[O-])c3cc4c5c(c3[o+]c2c1)CCCN5CCC4` [Compound 40, 2-(12-methyl-2,3,6,7-tetrahydro-1H,5H-chromeno[2,3-f]pyrido[3,2,1-ij]quinolin-14-ium-9-yl)-5-sulfobenzenesulfonate], the Target entry is listed as “Endothelial”.
Regarding `O=S(=O)([O-])c1cc(S(=O)(=O)O)ccc1-c1c2ccc(B(O)O)cc2[o+]c2c3c4c(cc12)CCCN4CCC3` [Compound 41, 2-(12-borono-2,3,6,7-tetrahydro-1H,5H-chromeno[2,3-f]pyrido[3,2,1-ij]quinolin-14-ium-9-yl)-5-sulfobenzenesulfonate], the Target entry is given as “Endothelial”.
As for `CN(C)c1ccc2c(-c3ccc(S(=O)(=O)O)cc3S(=O)(=O)[O-])c3ccc(Br)cc3[o+]c2c1` [Compound 42, 2-(3-bromo-6-(dimethylamino)xanthylium-9-yl)-5-sulfobenzenesulfonate], the Target entry is listed as “Endothelial”.
`CN(C)c1ccc2c(-c3ccc(S(=O)(=O)O)cc3S(=O)(=O)[O-])c3ccc(N(C)C)cc3[o+]c2c1` [Compound 43, 2-(3,6-bis(dimethylamino)xanthylium-9-yl)-5-sulfobenzenesulfonate]: the Target result was “Endothelial” and the “cellular labeling in cortex” value is recorded as “robust endothelial specific uptake”.
In the case of `O=S(=O)([O-])c1cc(S(=O)(=O)O)ccc1C1=c2cc3c4c(c2Oc2cc5ccc(Br)cc5cc21)CCC[N+]=4CCC3` [Compound 44, 2-(12-bromo-1,2,3,5,6,7-hexahydrobenzo[6,7]chromeno[2,3-f]pyrido[3,2,1-ij]quinolin-4-ium-9-yl)-5-sulfobenzenesulfonate], the Target entry is recorded as “Endothelial”.
On the same count and under the same terms, in the case of `O=S(=O)([O-])c1cc(S(=O)(=O)O)ccc1C1=c2cc3c4c(c2Oc2c1cc1ccccc1c2Br)CCC[N+]=4CCC3` [Compound 45, 2-(15-bromo-1,2,3,5,6,7-hexahydrobenzo[6,7]chromeno[2,3-f]pyrido[3,2,1-ij]quinolin-4-ium-9-yl)-5-sulfobenzenesulfonate] it was “Endothelial”; in that of `CCN(CC)c1ccc2c(-c3ccc(S(=O)(=O)O)cc3S(=O)(=O)[O-])c3ccc(N(CC)CC)cc3[o+]c2c1` [Compound 46, 2-(3,6-bis(diethylamino)xanthylium-9-yl)-5-sulfobenzenesulfonate], “Endothelial”.
In the case of `CC(=O)N(O)CCCCCNC(=O)CCC(=O)N(O)CCCCCNC(=O)CCC(=O)N(O)CCCCCNS(=O)(=O)c1ccc(-c2c3ccc(N(C)C)cc3[o+]c3cc(N(C)C)ccc23)c(S(=O)(=O)[O-])c1` [Compound 49, 2-(3,6-bis(dimethylamino)xanthylium-9-yl)-5-(N-(3,14,25-trihydroxy-2,10,13,21,24-pentaoxo-3,9,14,20,25-pentaazatriacontan-30-yl)sulfamoyl)benzenesulfonate], the “in vivo endothelial labeling/uptake” value was “robust endothelial cell body uptake”.
As for `CN(C)c1ccc2c(-c3ccc(S(=O)(=O)Cl)cc3S(=O)(=O)[O-])c3ccc(N(C)C)cc3[o+]c2c1` [Compound 54, 2-(3,6-bis(dimethylamino)xanthylium-9-yl)-5-(chlorosulfonyl)benzenesulfonate], the “cellular labeling in cortex” value is on record as “robust endothelial specific uptake”.
For the molecule `CN(C)c1ccc2c(-c3ccc(S(=O)(=O)NCCNC(=O)OC(C)(C)C)cc3S(=O)(=O)[O-])c3ccc(N(C)C)cc3[o+]c2c1` [Compound 55, 2-(3,6-bis(dimethylamino)xanthylium-9-yl)-5-(N-(2-((tert-butoxycarbonyl)amino)ethyl)sulfamoyl)benzenesulfonate], the “in vivo endothelial labeling/uptake” value is given as “robust endothelial cell body uptake”.
For `CCN(CC)c1ccc2c(-c3ccc(S(=O)(=O)NCCOCCOCCOCCOCCOCCOCCOCCOCCOCCOCCOCCOCCOCCOCCOCCOCCOCCOCCOCCOCCOCCOC)cc3S(=O)(=O)[O-])c3ccc(N(CC)CC)cc3[o+]c2c1` [Compound 56], the “in vivo endothelial labeling/uptake” value is “highly specific in vivo endothelial labeling”.
The same measure, in the same setting: then `CCN(CC)c1ccc2c(-c3ccc(S(=O)(=O)NCCOCCOCCOCCOCCOCCOCCOCCOCCOCCOCCOCCOCCOCCOCCOCCOCCOCCOCCOCCOCCOCCOCCOCCOCCOCCOCCOCCOCCOCCOCCOCCOCCOCCOCCOCCOCCOCCOCCOCCOCCOCCOCCOCCOCCOC)cc3S(=O)(=O)[O-])c3ccc(N(CC)CC)cc3[o+]c2c1` [Compound 57], with “highly specific in vivo endothelial labeling”.

Source of the values: US20260272895A1, “METHODS AND KITS FOR DELIVERY OF COMPOUNDS INTO CELLS” (Yale University, priority 2023, published 2026).
